From the supplement of paper PMC10307832

What was measured:
Test in all cases: relative viability (nuclei count vs DMSO), 5 days (fraction); higher = more cells survive
Sorafenib = compound: CNC(=O)c1cc(Oc2ccc(NC(=O)Nc3ccc(Cl)c(C(F)(F)F)c3)cc2)ccn1 [Sorafenib]
Outline: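 After an overnight hold at 37 °C, lung cancer cell lines in 1536-well plates were pinned with five library-drug doses (not always all listed), each √10 from the next, on vehicle-anchored plates. The cells stayed 5 days without fresh medium, then a one-step fix, permeabilisation and Hoechst stain preceded 4× imaging and MetaXpress nuclear counts. A plate passed only with control CV under 25% and at least one doubling. Viability is the median, over plates, of treated-well nuclei relative to vehicle-well nuclei.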

Sorafenib + Alpelisib = compound: CNC(=O)c1cc(Oc2ccc(NC(=O)Nc3ccc(Cl)c(C(F)(F)F)c3)cc2)ccn1 [Sorafenib] + Cc1nc(NC(=O)N2CCC[C@H]2C(N)=O)sc1-c1ccnc(C(C)(C)C(F)(F)F)c1 [Alpelisib] (partner 2 µM)
Outline: (§1)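 Relative viability was taken as the ratio of nuclei in treated wells to nuclei in vehicle wells. Lung cancer cell lines in 1536-well plates received compounds by pin tool one day after seeding, either one drug alone or a fixed anchor-drug dose plus five library-drug doses (not always all listed) in √10 steps. Nuclei were counted on 4× images after 5 days of treatment, and values are medians of duplicate plates.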

Sorafenib + Crizotinib = compound: CNC(=O)c1cc(Oc2ccc(NC(=O)Nc3ccc(Cl)c(C(F)(F)F)c3)cc2)ccn1 [Sorafenib] + C[C@@H](Oc1cc(-c2cnn(C3CCNCC3)c2)cnc1N)c1c(Cl)ccc(F)c1Cl [Crizotinib] (partner 1 µM)
Outline: as §1

Sorafenib + Bortezomib = compound: CNC(=O)c1cc(Oc2ccc(NC(=O)Nc3ccc(Cl)c(C(F)(F)F)c3)cc2)ccn1 [Sorafenib] + CC(C)C[C@H](NC(=O)[C@H](Cc1ccccc1)NC(=O)c1cnccn1)B(O)O [Bortezomib] (partner 0.002 µM)
Outline: as §1

Sorafenib + Foretinib = compound: CNC(=O)c1cc(Oc2ccc(NC(=O)Nc3ccc(Cl)c(C(F)(F)F)c3)cc2)ccn1 [Sorafenib] + COc1cc2c(Oc3ccc(NC(=O)C4(C(=O)Nc5ccc(F)cc5)CC4)cc3F)ccnc2cc1OCCCN1CCOCC1 [Foretinib] (partner 0.25 µM)
Outline: as §1

Sorafenib + Lapatinib = compound: CNC(=O)c1cc(Oc2ccc(NC(=O)Nc3ccc(Cl)c(C(F)(F)F)c3)cc2)ccn1 [Sorafenib] + CS(=O)(=O)CCNCc1ccc(-c2ccc3ncnc(Nc4ccc(OCc5cccc(F)c5)c(Cl)c4)c3c2)o1 [Lapatinib] (partner 2 µM)
Outline: as §1

Sorafenib + Olaparib = compound: CNC(=O)c1cc(Oc2ccc(NC(=O)Nc3ccc(Cl)c(C(F)(F)F)c3)cc2)ccn1 [Sorafenib] + O=C(c1cc(Cc2n[nH]c(=O)c3ccccc23)ccc1F)N1CCN(C(=O)C2CC2)CC1 [Olaparib] (partner 8 µM)
Outline: as §1

Sorafenib + Linsitinib = compound: CNC(=O)c1cc(Oc2ccc(NC(=O)Nc3ccc(Cl)c(C(F)(F)F)c3)cc2)ccn1 [Sorafenib] + C[C@]1(O)C[C@@H](c2nc(-c3ccc4ccc(-c5ccccc5)nc4c3)c3c(N)nccn32)C1 [Linsitinib] (partner 1 µM)
Outline: as §1

Sorafenib + Navitoclax = compound: CNC(=O)c1cc(Oc2ccc(NC(=O)Nc3ccc(Cl)c(C(F)(F)F)c3)cc2)ccn1 [Sorafenib] + CC1(C)CCC(c2ccc(Cl)cc2)=C(CN2CCN(c3ccc(C(=O)NS(=O)(=O)c4ccc(N[C@H](CCN5CCOCC5)CSc5ccccc5)c(S(=O)(=O)C(F)(F)F)c4)cc3)CC2)C1 [Navitoclax] (partner 0.5 µM)
Outline: as §1

Sorafenib + Pictilisib = compound: CNC(=O)c1cc(Oc2ccc(NC(=O)Nc3ccc(Cl)c(C(F)(F)F)c3)cc2)ccn1 [Sorafenib] + CS(=O)(=O)N1CCN(Cc2cc3nc(-c4cccc5[nH]ncc45)nc(N4CCOCC4)c3s2)CC1 [Pictilisib] (partner 1 µM)
Outline: as §1

Sorafenib + AZD7762 = compound: CNC(=O)c1cc(Oc2ccc(NC(=O)Nc3ccc(Cl)c(C(F)(F)F)c3)cc2)ccn1 [Sorafenib] + NC(=O)Nc1cc(-c2cccc(F)c2)sc1C(=O)N[C@H]1CCCNC1 [AZD7762] (partner 0.2 µM)
Outline: as §1

Sorafenib + Trametinib = compound: CNC(=O)c1cc(Oc2ccc(NC(=O)Nc3ccc(Cl)c(C(F)(F)F)c3)cc2)ccn1 [Sorafenib] + CC(=O)Nc1cccc(-n2c(=O)n(C3CC3)c(=O)c3c(Nc4ccc(I)cc4F)n(C)c(=O)c(C)c32)c1 [Trametinib] (partner 0.02 µM)
Outline: as §1

Sorafenib + Tozasertib = compound: CNC(=O)c1cc(Oc2ccc(NC(=O)Nc3ccc(Cl)c(C(F)(F)F)c3)cc2)ccn1 [Sorafenib] + Cc1cc(Nc2cc(N3CCN(C)CC3)nc(Sc3ccc(NC(=O)C4CC4)cc3)n2)n[nH]1 [Tozasertib] (partner 0.1 µM)
Outline: as §1

Sorafenib + Palbociclib = compound: CNC(=O)c1cc(Oc2ccc(NC(=O)Nc3ccc(Cl)c(C(F)(F)F)c3)cc2)ccn1 [Sorafenib] + CC(=O)c1c(C)c2cnc(Nc3ccc(N4CCNCC4)cn3)nc2n(C2CCCC2)c1=O [Palbociclib] (partner 0.5 µM)
Outline: as §1

Sorafenib + Decitabine = compound: CNC(=O)c1cc(Oc2ccc(NC(=O)Nc3ccc(Cl)c(C(F)(F)F)c3)cc2)ccn1 [Sorafenib] + Nc1ncn([C@H]2C[C@H](O)[C@@H](CO)O2)c(=O)n1 [Decitabine] (partner 2 µM)
Outline: as §1

Sorafenib + Vorinostat = compound: CNC(=O)c1cc(Oc2ccc(NC(=O)Nc3ccc(Cl)c(C(F)(F)F)c3)cc2)ccn1 [Sorafenib] + O=C(CCCCCCC(=O)Nc1ccccc1)NO [Vorinostat] (partner 1 µM)
Outline: as §1

Sorafenib + Pemetrexed = compound: CNC(=O)c1cc(Oc2ccc(NC(=O)Nc3ccc(Cl)c(C(F)(F)F)c3)cc2)ccn1 [Sorafenib] + Nc1nc2[nH]cc(CCc3ccc(C(=O)N[C@@H](CCC(=O)O)C(=O)O)cc3)c2c(=O)[nH]1 [Pemetrexed] (partner 0.2 µM)
Outline: as §1

Sorafenib + OSI-027 = compound: CNC(=O)c1cc(Oc2ccc(NC(=O)Nc3ccc(Cl)c(C(F)(F)F)c3)cc2)ccn1 [Sorafenib] + COc1cccc2cc(-c3nc([C@H]4CC[C@H](C(=O)O)CC4)n4ncnc(N)c34)[nH]c12 [OSI-027] (partner 0.5 µM)
Outline: as §1

## EBC-1
Sorafenib; 0.08 µM
  relative viability: 1.05
Sorafenib; 0.253 µM
  relative viability: 0.904
Sorafenib; 2.53 µM
  relative viability: 0.929
Sorafenib; 8 µM
  relative viability: 0.812
Sorafenib + Alpelisib; first compound 0.08 µM
  relative viability: 0.875
Sorafenib + Alpelisib; first compound 0.253 µM
  relative viability: 0.769
Sorafenib + Alpelisib; first compound 2.53 µM
  relative viability: 0.89
Sorafenib + Alpelisib; first compound 8 µM
  relative viability: 0.623
Sorafenib + Crizotinib; first compound 0.08 µM
  relative viability: 0.189
Sorafenib + Crizotinib; first compound 0.253 µM
  relative viability: 0.176
Sorafenib + Crizotinib; first compound 2.53 µM
  relative viability: 0.202
Sorafenib + Crizotinib; first compound 8 µM
  relative viability: 0.203
Sorafenib + Bortezomib; first compound 0.08 µM
  relative viability: 0.575
Sorafenib + Bortezomib; first compound 0.253 µM
  relative viability: 0.481
Sorafenib + Bortezomib; first compound 2.53 µM
  relative viability: 0.521
Sorafenib + Bortezomib; first compound 8 µM
  relative viability: 0.405
Sorafenib + Foretinib; first compound 0.08 µM
  relative viability: 0.092
Sorafenib + Foretinib; first compound 0.253 µM
  relative viability: 0.1
Sorafenib + Foretinib; first compound 2.53 µM
  relative viability: 0.11
Sorafenib + Foretinib; first compound 8 µM
  relative viability: 0.114
Sorafenib + Lapatinib; first compound 0.08 µM
  relative viability: 0.203
Sorafenib + Lapatinib; first compound 0.253 µM
  relative viability: 0.219
Sorafenib + Lapatinib; first compound 2.53 µM
  relative viability: 0.226
Sorafenib + Lapatinib; first compound 8 µM
  relative viability: 0.208
Sorafenib + Olaparib; first compound 0.08 µM
  relative viability: 0.717
Sorafenib + Olaparib; first compound 0.253 µM
  relative viability: 0.543
Sorafenib + Olaparib; first compound 2.53 µM
  relative viability: 0.594
Sorafenib + Olaparib; first compound 8 µM
  relative viability: 0.557
Sorafenib + Linsitinib; first compound 0.253 µM
  relative viability: 0.732
Sorafenib + Linsitinib; first compound 2.53 µM
  relative viability: 0.931
Sorafenib + Linsitinib; first compound 8 µM
  relative viability: 0.625
Sorafenib + Navitoclax; first compound 0.08 µM
  relative viability: 0.568
Sorafenib + Navitoclax; first compound 2.53 µM
  relative viability: 0.42
Sorafenib + Navitoclax; first compound 8 µM
  relative viability: 0.451
Sorafenib + Pictilisib; first compound 0.08 µM
  relative viability: 0.371
Sorafenib + Pictilisib; first compound 0.253 µM
  relative viability: 0.419
Sorafenib + Pictilisib; first compound 2.53 µM
  relative viability: 0.355
Sorafenib + Pictilisib; first compound 8 µM
  relative viability: 0.287

## NCI-H1648
Sorafenib; 0.08 µM
  relative viability: 0.921
Sorafenib; 0.253 µM
  relative viability: 0.53
Sorafenib; 2.53 µM
  relative viability: 0.925
Sorafenib; 8 µM
  relative viability: 0.726
Sorafenib + AZD7762; first compound 0.08 µM
  relative viability: 0.704
Sorafenib + AZD7762; first compound 2.53 µM
  relative viability: 0.74
Sorafenib + AZD7762; first compound 8 µM
  relative viability: 0.498
Sorafenib + Trametinib; first compound 0.08 µM
  relative viability: 0.468
Sorafenib + Trametinib; first compound 2.53 µM
  relative viability: 0.454
Sorafenib + Trametinib; first compound 8 µM
  relative viability: 0.258
Sorafenib + Tozasertib; first compound 0.08 µM
  relative viability: 0.566
Sorafenib + Tozasertib; first compound 0.253 µM
  relative viability: 0.4
Sorafenib + Tozasertib; first compound 2.53 µM
  relative viability: 0.282
Sorafenib + Tozasertib; first compound 8 µM
  relative viability: 0.405
Sorafenib + Palbociclib; first compound 0.08 µM
  relative viability: 0.307
Sorafenib + Palbociclib; first compound 2.53 µM
  relative viability: 0.249
Sorafenib + Palbociclib; first compound 8 µM
  relative viability: 0.231
Sorafenib + Decitabine; first compound 0.08 µM
  relative viability: 0.521
Sorafenib + Decitabine; first compound 2.53 µM
  relative viability: 0.682
Sorafenib + Decitabine; first compound 8 µM
  relative viability: 0.409
Sorafenib + Vorinostat; first compound 0.08 µM
  relative viability: 0.404
Sorafenib + Vorinostat; first compound 2.53 µM
  relative viability: 0.482
Sorafenib + Vorinostat; first compound 8 µM
  relative viability: 0.321
Sorafenib + Olaparib; first compound 0.08 µM
  relative viability: 0.787
Sorafenib + Olaparib; first compound 2.53 µM
  relative viability: 0.76
Sorafenib + Olaparib; first compound 8 µM
  relative viability: 0.721
Sorafenib + Pemetrexed; first compound 0.08 µM
  relative viability: 0.771
Sorafenib + Pemetrexed; first compound 2.53 µM
  relative viability: 0.708
Sorafenib + Pemetrexed; first compound 8 µM
  relative viability: 0.731
Sorafenib + OSI-027; first compound 0.08 µM
  relative viability: 0.235
Sorafenib + OSI-027; first compound 0.253 µM
  relative viability: 0.264
Sorafenib + OSI-027; first compound 2.53 µM
  relative viability: 0.247
Sorafenib + OSI-027; first compound 8 µM
  relative viability: 0.247

## Calu-6
Sorafenib; 0.08 µM
  relative viability: 1.06
Sorafenib; 0.253 µM
  relative viability: 0.959
Sorafenib; 2.53 µM
  relative viability: 0.925
Sorafenib; 8 µM
  relative viability: 0.711
Sorafenib + Alpelisib; first compound 0.08 µM
  relative viability: 0.923
Sorafenib + Alpelisib; first compound 0.253 µM
  relative viability: 0.954
Sorafenib + Alpelisib; first compound 2.53 µM
  relative viability: 0.948
Sorafenib + Alpelisib; first compound 8 µM
  relative viability: 0.487
Sorafenib + Crizotinib; first compound 0.08 µM
  relative viability: 0.928
Sorafenib + Crizotinib; first compound 0.253 µM
  relative viability: 0.735
Sorafenib + Crizotinib; first compound 2.53 µM
  relative viability: 0.679
Sorafenib + Crizotinib; first compound 8 µM
  relative viability: 0.366
Sorafenib + Bortezomib; first compound 0.08 µM
  relative viability: 0.948
Sorafenib + Bortezomib; first compound 0.253 µM
  relative viability: 0.936
Sorafenib + Bortezomib; first compound 2.53 µM
  relative viability: 0.934
Sorafenib + Bortezomib; first compound 8 µM
  relative viability: 0.61
Sorafenib + Foretinib; first compound 0.08 µM
  relative viability: 0.973
Sorafenib + Foretinib; first compound 0.253 µM
  relative viability: 0.852
Sorafenib + Foretinib; first compound 2.53 µM
  relative viability: 0.816
Sorafenib + Foretinib; first compound 8 µM
  relative viability: 0.622
Sorafenib + Lapatinib; first compound 0.08 µM
  relative viability: 1.04
Sorafenib + Lapatinib; first compound 0.253 µM
  relative viability: 0.984
Sorafenib + Lapatinib; first compound 2.53 µM
  relative viability: 0.99
Sorafenib + Lapatinib; first compound 8 µM
  relative viability: 0.378
Sorafenib + Olaparib; first compound 0.08 µM
  relative viability: 0.538
Sorafenib + Olaparib; first compound 2.53 µM
  relative viability: 0.531
Sorafenib + Olaparib; first compound 8 µM
  relative viability: 0.306
Sorafenib + Linsitinib; first compound 0.08 µM
  relative viability: 0.885
Sorafenib + Linsitinib; first compound 2.53 µM
  relative viability: 0.904
Sorafenib + Linsitinib; first compound 8 µM
  relative viability: 0.778
Sorafenib + Navitoclax; first compound 0.08 µM
  relative viability: 0.887
Sorafenib + Navitoclax; first compound 0.253 µM
  relative viability: 0.794
Sorafenib + Navitoclax; first compound 2.53 µM
  relative viability: 0.724
Sorafenib + Navitoclax; first compound 8 µM
  relative viability: 0.457
Sorafenib + Pictilisib; first compound 0.08 µM
  relative viability: 0.964
Sorafenib + Pictilisib; first compound 0.253 µM
  relative viability: 0.805
Sorafenib + Pictilisib; first compound 2.53 µM
  relative viability: 0.864
Sorafenib + Pictilisib; first compound 8 µM
  relative viability: 0.351
